The numbers were not newly measured in patent US20050043536A1, “Sulfonamides” (priority 2001, published 2005), which cites them from elsewhere.

The series relates to rat-isolated aorta.

As to `CC(C)[C@H](NC(=O)[C@@H]1CSSC[C@H](NC(=O)[C@H](CC(=O)O)NC(=O)[C@@H]2CCCN2C(=O)[C@@H](NC(=O)[C@@H](N)CCC(=O)O)[C@@H](C)O)C(=O)N[C@@H](Cc2ccccc2)C(=O)N[C@@H](Cc2c[nH]c3ccccc23)C(=O)N[C@@H](CCCCN)C(=O)N[C@@H](Cc2ccc(O)cc2)C(=O)N1)C(=O)O` [Human Urotensin-II], the contractile activity entry was “the most potent contractile agonist identified to date”.
